Results as given in patent US20210261528A1, “SALTS OF (S)-(5-CYCLOBUTOXY-2-METHYL-6-(1-(PIPERIDIN-4-YL)-1H-PYRAZOL-4-YL)-3,4-DIHYDROQUINOLIN-1(2H)-YL)(CYCLOPROPYL)METHANONE AND SOLID FORMS THEREOF” (FORMA Therapeutics, Inc., priority 2018, published 2021).
“And” between values parts separate entries of the source, which are not always exact repeats. Equal entries are not always repeated. “Also recorded” adds a separate entry of the source.

What was measured:
Format in all cases: physicochemical
[1] = Chemical stability by HPLC-UV at 275 nm and 254 nm (Table 9)
Method: High Pressure Liquid Chromatography (HPLC) data were obtained according to Tables 6 or 7, below:
A standard stock was dissolved with diluent in a volumetric flask (e.g., 25 mg in 25 mL). This stock was vortexed and sonicated 10 sec to dissolve, and then diluted 1:10, 1:4, and 1:2 either in volumetric flasks or in HPLC vials to generate a standard curve. […] Where appropriate, a blank was created to accurately replicate the matrix of the analytical sample, and peaks appearing in the blank were identified before integration and quantification using Chemstation software.
The chemical stability of Succinate Form A was determined using HPLC-UV at 275 nm and 254 nm.
The chemical stability of Form G was determined using HPLC-UV at 275 nm and 254 nm.

[2] = Hygroscopicity evaluation by Dynamic Vapor Sorption (DVS) with XRPD of the solids after DVS; settings: for behaviour at high humidity (DVS): >60% RH; for behaviour at high humidity (DVS) / hygroscopicity (DVS): 25° C.; for solid form after the DVS test: XRPD of solids after DVS; for hygroscopicity (DVS): absorption up to 80% RH
Method: Dynamic Vapor Sorption (DVS) was obtained using a Surface Measurement Systems (SMS) DVS Intrinsic. The relative humidity at 25° C. were calibrated against deliquescence point of LiCl, Mg (NO3)2 and KCl.

[3] = Slurry turnover of Compound 2 Form B, Form I and Form G (Example 11, Table 25); settings: 24 hours
Method: To further study the form identity of Form B and Form I, slurry turnover experiments were performed in two solvents with the addition of Form G. Form B was dissolved in IPAc and MTBE respectively to get saturated solutions. Similar mass of Form B, G and I were weighed into a 2-mL vial, upon which the corresponding saturated solution was added to give the slurry, which was stirred at RT or 50° C. After slurry for 24 hours, the solids obtained were analyzed by XRPD.

[4] = Slurry competition between Compound 2 Form G and Form O for stability evaluation (Example 10, Table 24); settings: 24 hours
Method: The slurry competition experiments between the two anhydrates, Form G and Form O, were performed in two solvents, IPAc and MTBE, at RT and 50° C. for stability evaluation. Form O was dissolved in IPAc and MTBE respectively to get saturated solutions. Then, similar masses of Form G and Form O were added into a 2-mL vial, upon which the corresponding saturated solution was added to give the slurry, which was stirred at RT or 50° C. for 24 hours. The solids collected were analyzed by XRPD to confirm the form change.

[5] = Critical aw between Compound 2 Form G and Form I, slurry turnover in H2O/IPAc (Example 12, Table 26); settings: for Final Form: 24 hrs
Method: To investigate the critical aw between hydrated Form I and the stable anhydrate, Form G, slurry turnover of Form I and Form G was conducted in a co-solvent system (H2O/IPAc) with different aw at RT and 50° C. Similar mass of Form G and Form I were added into a 2-mL vial, followed by adding solvent and stirring at RT or 50° C. for 24 hrs. The solids obtained were analyzed by XRPD to confirm the form change.

[6] = Aqueous solubility estimation of Compound 2 Form G, Form O and Form I at RT (Example 13, Table 27); settings: for Observation Initial / Observation 2 hrs: about 3 mg in 50 μL water; for Observation 2 hrs: stirred 2 hrs
Method: Aqueous solubility tests at RT were conducted on the two potential anhydrates, Form G and O, and the hydrated Form I. About 3 mg of each form was weighed into a 2-mL vial. […] of water was added and stirred thoroughly at RT with the speed of 800 RPM.

SMILES: C[C@H]1CCc2c(ccc(-c3cnn(C4CCNCC4)c3)c2OC2CCC2)N1C(=O)C1CC1.O=C(O)CCC(=O)O [A]
- % Claim (275 nm) ([1]; 25° C./60% RH): 98.3% and 99.8%
- % Purity (275 nm) ([1]; 25° C./60% RH): 98.64% and 98.78%
- % Claim (275 nm) ([1]; initial): 95.2%
- % Purity (275 nm) ([1]; initial): 98.73%

SMILES: C[C@H]1CCc2c(ccc(-c3cnn(C4CCNCC4)c3)c2OC2CCC2)N1C(=O)C1CC1.O=C(O)CCCCC(=O)O [Adipate Form A]
- behaviour at high humidity (DVS) [2]: deliquescent
- solid form after the DVS test [2]: amorphous or jelly solids

SMILES: C[C@H]1CCc2c(ccc(-c3cnn(C4CCNCC4)c3)c2OC2CCC2)N1C(=O)C1CC1.O=C(O)CCC(=O)O [Form B, (S)-(5-cyclobutoxy-2-methyl-6-(1-(piperidin-4-yl)-1H-pyrazol-4-yl)-3,4-dihydroquinolin-1(2H)-yl)(cyclopropyl)methanone succinate]
- solid form after the DVS test ([2]; succinate): amorphous
- hygroscopicity (DVS) ([2]; succinate): highly hygroscopic; also recorded: high hygroscopicity

SMILES: C[C@H]1CCc2c(ccc(-c3cnn(C4CCNCC4)c3)c2OC2CCC2)N1C(=O)C1CC1.O=C(O)CCC(=O)O [Form B, G and I]
- Results (solid form after slurry turnover, XRPD) ([3]; IPAc, 50° C.): Form G
- Results (solid form after slurry turnover, XRPD) ([3]; IPAc, RT): Form G
- Results (solid form after slurry turnover, XRPD) ([3]; MTBE, 50° C.): Form G
- Results (solid form after slurry turnover, XRPD) ([3]; MTBE, RT): Form G

SMILES: C[C@H]1CCc2c(ccc(-c3cnn(C4CCNCC4)c3)c2OC2CCC2)N1C(=O)C1CC1.O=C(O)CCC(=O)O [Form G and Form O]
- Results (solid form after slurry competition, XRPD) ([4]; IPAc, 50° C.): Form G
- Results (solid form after slurry competition, XRPD) ([4]; IPAc, RT): Form G
- Results (solid form after slurry competition, XRPD) ([4]; MTBE, 50° C.): Form G
- Results (solid form after slurry competition, XRPD) ([4]; MTBE, RT): Form G

SMILES: C[C@H]1CCc2c(ccc(-c3cnn(C4CCNCC4)c3)c2OC2CCC2)N1C(=O)C1CC1.O=C(O)CCC(=O)O [Form I and Form G]
- Final Form ([5]; H2O/IPAc (2.8:997.2, aw 0.18), 50° C.): Form G
- Final Form ([5]; H2O/IPAc (2.8:997.2, aw 0.20), RT): Form G
- Final Form ([5]; H2O/IPAc (6:994, aw 0.36), 50° C.): Form G
- Final Form ([5]; H2O/IPAc (6:994, aw 0.40), RT): Form G
- Final Form ([5]; H2O/IPAc (10:990, aw 0.55), 50° C.): Form G
- Final Form ([5]; H2O/IPAc (10:990, aw 0.59), RT): Form G
- Final Form ([5]; IPAc, 50° C.): Form G
- Final Form ([5]; IPAc, RT): Form G

SMILES: C[C@H]1CCc2c(ccc(-c3cnn(C4CCNCC4)c3)c2OC2CCC2)N1C(=O)C1CC1.O=C(O)CCC(=O)O [Form I, (S)-(5-cyclobutoxy-2-methyl-6-(1-(piperidin-4-yl)-1H-pyrazol-4-yl)-3,4-dihydroquinolin-1(2H)-yl)(cyclopropyl)methanone succinate]
- solid form after the DVS test ([2]; succinate): amorphous
- hygroscopicity (DVS) ([2]; succinate): high hygroscopicity
- weight change before 60% RH (DVS) ([2]; before 60% RH): minor weight change
- Observation Initial [6]: Little solid
- Observation 2 hrs [6]: Clear
- stability under ambient conditions compared to Form G ([5]; different aw): did not appear to have any stability

SMILES: C[C@H]1CCc2c(ccc(-c3cnn(C4CCNCC4)c3)c2OC2CCC2)N1C(=O)C1CC1.O=C(O)CCC(=O)O [Form M, (S)-(5-cyclobutoxy-2-methyl-6-(1-(piperidin-4-yl)-1H-pyrazol-4-yl)-3,4-dihydroquinolin-1(2H)-yl)(cyclopropyl)methanone succinate]
- solid form after the DVS test ([2]; succinate): amorphous
- hygroscopicity (DVS) ([2]; succinate): highly hygroscopic; also recorded: high hygroscopicity

SMILES: C[C@H]1CCc2c(ccc(-c3cnn(C4CCNCC4)c3)c2OC2CCC2)N1C(=O)C1CC1.O=C(O)CCC(=O)O [Form O, (S)-(5-cyclobutoxy-2-methyl-6-(1-(piperidin-4-yl)-1H-pyrazol-4-yl)-3,4-dihydroquinolin-1(2H)-yl)(cyclopropyl)methanone succinate]
- solid form after the DVS test ([2]; succinate): amorphous
- hygroscopicity (DVS) ([2]; succinate): highly hygroscopic; also recorded: high hygroscopicity
- Observation Initial [6]: Little solid
- Observation 2 hrs [6]: Clear
- solubility at 2 h ([6]; thermodynamic from solid, water, stirring 2 hrs at 800 RPM): > 60 mg/mL

SMILES: C[C@H]1CCc2c(ccc(-c3cnn(C4CCNCC4)c3)c2OC2CCC2)N1C(=O)C1CC1.O=C(O)/C=C/C(=O)O [Fumarate Form A]
- behaviour at high humidity (DVS) [2]: deliquescent
- solid form after the DVS test [2]: amorphous or jelly solids

SMILES: C[C@H]1CCc2c(ccc(-c3cnn(C4CCNCC4)c3)c2OC2CCC2)N1C(=O)C1CC1.O=C(O)/C=C/C(=O)O [Fumarate Form B]
- behaviour at high humidity (DVS) [2]: deliquescent
- solid form after the DVS test [2]: amorphous or jelly solids

SMILES: C[C@H]1CCc2c(ccc(-c3cnn(C4CCNCC4)c3)c2OC2CCC2)N1C(=O)C1CC1.O=C(O)/C=C/C(=O)O [Fumarate Form C]
- behaviour at high humidity (DVS) [2]: deliquescent
- solid form after the DVS test [2]: amorphous or jelly solids

SMILES: C[C@H]1CCc2c(ccc(-c3cnn(C4CCNCC4)c3)c2OC2CCC2)N1C(=O)C1CC1.O=C(O)CCC(=O)O [G]
- % Claim (275 nm) ([1]; 25° C./60% RH): 104% and 106% and 107% and 103%
- % Purity (275 nm) ([1]; 25° C./60% RH): 98.84% and 98.86%
- % Claim (275 nm) ([1]; 40° C./75% RH): 106% and 96.3% and 101%
- % Purity (275 nm) ([1]; 40° C./75% RH): 98.51% and 98.33% and 97.37% and 96.72%
- % Claim (275 nm) ([1]; 50° C.): 100% and 101% and 104%
- % Purity (275 nm) ([1]; 50° C.): 98.69% and 97.37% and 97.79%
- % Claim (275 nm) ([1]; 50° C.*): 98.1%
- % Purity (275 nm) ([1]; 50° C.*): 94.24%
- % Claim (275 nm) ([1]; Post DVS): 73.5%
- % Purity (275 nm) ([1]; Post DVS): 98.91%
- % Claim (275 nm) ([1]; RT): 106% and 103% and 107%
- % Purity (275 nm) ([1]; RT): 98.85% and 98.88% and 98.82% and 98.86%
- % Claim (275 nm) ([1]; initial): 102%
- % Purity (275 nm) ([1]; initial): 98.84%
